In this experiment the target is T1, Bcl-2 protein (Recombinant Human Bcl-2 Protein) (Homo sapiens, UniProt P10415).
T1 construct: purchased Novus NBP2-34889
Briefly: Binding evaluation of mixture library compounds to Bcl-2 using AS-MS (affinity selection mass spectrometry). The conditions noted are these: for ASMS ratio (%) n = 1: replicate n = 1; for ASMS ratio (%) n = 1 / ASMS ratio (%) n = 2: ASMS Ratio(%)=(A−C)/B×100; for ASMS ratio (%) n = 2: replicate n = 2. The gist of the method: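 Affinity selection MS: Bcl-2 20 μM + 1200-cpd mixture, […]/cpd, Tris pH 7.4 buffer w/ Tween-20, DTT; 1 h 23° C dark; P-2 spin SEC; MeCN/MeOH extraction; RP LC/MS. ASMS Ratio(%) = (A−C)/B×100.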

Setting [1] is: AS-MS on the mixture of 1200 library compounds.

T1 sequence (P10415 whole entry): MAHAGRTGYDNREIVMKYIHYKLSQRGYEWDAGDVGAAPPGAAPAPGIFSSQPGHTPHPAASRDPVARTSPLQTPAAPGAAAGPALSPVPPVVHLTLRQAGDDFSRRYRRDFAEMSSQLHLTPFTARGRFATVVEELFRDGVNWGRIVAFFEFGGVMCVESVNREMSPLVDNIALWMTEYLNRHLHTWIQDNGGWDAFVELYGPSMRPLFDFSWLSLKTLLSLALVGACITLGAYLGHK

For `CCOc1cncc(C#Cc2ccccc2C(=O)N2CCN(c3ccc(C(=O)NS(=O)(=O)CC45CC6CC(CC(C6)C4)C5)cc3)CC2)c1` [B2A030-01, N-(1-Adamantylmethylsulfonyl)-4-[4-[2-[2-(5-ethoxypyridin-3-yl)ethynyl]benzoyl]piperazin-1-yl]benzamide], under “AS-MS, mixture library, Bcl-2”, the “ASMS ratio (%) n = 1” value stood at 0.0% and the “ASMS ratio (%) n = 2” value is recorded as 0.3%.
As to `CCOc1cncc(-c2cc(OC)c(CN3CCN(c4ccc(C(=O)NS(=O)(=O)c5ccc(NCCSc6ccccc6)c(C(F)(F)F)c5)nn4)CC3)c(OC)c2)c1` [B2R086-01], the “ASMS ratio (%)” value (n = 1) worked out at 0.0% and the “ASMS ratio (%)” value (n = 2) stood at 0.0%.
Turning to `CCOc1cccc(C#Cc2cncc(C(=O)N3CCN(c4ccc(C(=O)NS(=O)(=O)c5ccc(NCCSc6ccccc6)c(C(F)(F)F)c5)cc4)CC3)c2)c1` [B2R031-01, 4-[4-[5-[2-(3-Ethoxyphenyl)ethynyl]pyridine-3-carbonyl]piperazin-1-yl]-N-[4-(2-phenylsulfanylethylamino)-3-(trifluoromethyl)phenyl]sulfonylbenzamide], the “ASMS ratio (%)” value turned out to be 0.0% (n = 1) and 4.8% (n = 2).
Turning to `CCOc1cncc(C#Cc2ccccc2C(=O)N2CCN(c3ccc(C(=O)NS(=O)(=O)c4ccc(NCCSc5ccccc5)c(C(F)(F)F)c4)cc3)CC2)c1` [B2R030-01, 4-[4-[2-[2-(5-Ethoxypyridin-3-yl)ethynyl]benzoyl]piperazin-1-yl]-N-[4-(2-phenylsulfanylethylamino)-3-(trifluoromethyl)phenyl]sulfonylbenzamide], the “ASMS ratio (%)” value runs as follows: (n = 1) 0.0%; (n = 2) 4.8%.
`CCOc1cncc(-c2cnn(-c3cc(C(=O)N4CCN(c5ccc(C(=O)Nc6ccc(OC)cc6)nn5)CC4)cc(C(F)(F)F)c3)c2)c1` [B1O022-01, 6-[4-[3-[4-(5-Ethoxypyridin-3-yl)pyrazol-1-yl]-5-(trifluoromethyl)benzoyl]piperazin-1-yl]-N-(4-methoxyphenyl)pyridazine-3-carboxamide]: under setting [1], the “ASMS ratio (%) n = 1” value is reported as 5.6% and the “ASMS ratio (%) n = 2” value is on record as −1.2%.
For `CCOc1cncc(-c2cc(CN3CCN(c4ccc(C(=O)NS(=O)(=O)CC56CC7CC(CC(C7)C5)C6)cc4)CC3)cc(OCC)c2)c1` [B2A056-01, N-(1-Adamantylmethylsulfonyl)-4-[4-[[3-ethoxy-5-(5-ethoxypyridin-3-yl)phenyl]methyl]piperazin-1-yl]benzamide], under “AS-MS, mixture library, Bcl-2”, the “ASMS ratio (%) n = 1” value was −3.9% and the “ASMS ratio (%) n = 2” value was determined as 0.2%.
The corresponding values for `CCOc1cncc(C#Cc2cc(C(=O)N3CCN(c4ccc(C(=O)NS(C)(=O)=O)nn4)CC3)cc(C(F)(F)F)c2)c1` [B2I020-01, 6-[4-[3-[2-(5-Ethoxypyridin-3-yl)ethynyl]-5-(trifluoromethyl)benzoyl]piperazin-1-yl]-N-methylsulfonylpyridazine-3-carboxamide] are 0.0% and 0.0%.
For `CCOc1cncc(C#Cc2cc(C(=O)N3CCN(c4ccc(C(=O)N(C)CC56CC7CC(CC(C7)C5)C6)cc4)CC3)cc(C(F)(F)F)c2)c1` [B3A042-01, N-(1-Adamantylmethyl)-4-[4-[3-[2-(5-ethoxypyridin-3-yl)ethynyl]-5-(trifluoromethyl)benzoyl]piperazin-1-yl]-N-methylbenzamide], under setting [1], the “ASMS ratio (%) n = 1” value is −0.2% and the “ASMS ratio (%) n = 2” value is −1.2%.
`CCOc1cncc(-c2ccc(CN3CCN(c4ccc(C(=O)NS(=O)(=O)c5ccc(NCCSc6ccccc6)c([N+](=O)[O-])c5)nn4)CC3)cc2C)c1` [B2Q074-01]: where the note is “AS-MS, mixture library, Bcl-2”, the “ASMS ratio (%) n = 1” value came out at 18.8% and the “ASMS ratio (%) n = 2” value is recorded as 15.4%.
In the case of `CCOc1cccc(C#Cc2ccccc2CN2CCN(c3ccc(C(=O)Nc4ccc(OC)cc4)nn3)CC2)c1` [B1O095-01, 6-[4-[[2-[2-(3-Ethoxyphenyl)ethynyl]phenyl]methyl]piperazin-1-yl]-N-(4-methoxyphenyl)pyridazine-3-carboxamide], under setting [1], the “ASMS ratio (%) n = 1” value is given as 2.7% and the “ASMS ratio (%) n = 2” value is reported as 0.0%.
For the molecule `CCOc1cncc(-c2cc(CN3CCN(c4ccc(C(=O)N(C)CC56CC7CC(CC(C7)C5)C6)nn4)CC3)cc(OC(C)C)c2)c1` [B3A084-01, N-(1-Adamantylmethyl)-6-[4-[[3-(5-ethoxypyridin-3-yl)-5-propan-2-yloxyphenyl]methyl]piperazin-1-yl]-N-methylpyridazine-3-carboxamide], under setting [1], the “ASMS ratio (%) n = 1” value was −17.6% and the “ASMS ratio (%) n = 2” value was −7.4%.
With `CCOc1cccc(-c2cc(OC)c(CN3CCN(c4ccc(C(=O)NS(=O)(=O)C(C)(C)C)cc4)CC3)c(OC)c2)c1` [B2L059-01, N-tert-Butylsulfonyl-4-[4-[[4-(3-ethoxyphenyl)-2,6-dimethoxyphenyl]methyl]piperazin-1-yl]benzamide], the “ASMS ratio (%)” value stood at 0.0% (n = 1) and 0.0% (n = 2).
Take `CCOc1cccc(C#Cc2cncc(C(=O)N3CCN(c4ccc(C(=O)Nc5ccc(OC)cc5)cc4)CC3)c2)c1` [B1O031-01, 4-[4-[5-[2-(3-Ethoxyphenyl)ethynyl]pyridine-3-carbonyl]piperazin-1-yl]-N-(4-methoxyphenyl)benzamide]: under setting [1], the “ASMS ratio (%) n = 1” value is recorded as −1.3% and the “ASMS ratio (%) n = 2” value is reported as −4.1%.
Turning to `CCOc1cncc(C#Cc2cncc(C(=O)N3CCN(c4ccc(C(=O)NS(=O)(=O)c5ccc(NCCSc6ccccc6)c([N+](=O)[O-])c5)cc4)CC3)c2)c1` [B2Q032-01, 4-[4-[5-[2-(5-Ethoxypyridin-3-yl)ethynyl]pyridine-3-carbonyl]piperazin-1-yl]-N-[3-nitro-4-(2-phenylsulfanylethylamino)phenyl]sulfonylbenzamide], under “AS-MS, mixture library, Bcl-2”, the “ASMS ratio (%) n = 1” value is given as −0.2% and the “ASMS ratio (%) n = 2” value is reported as −374.2%.
Consider `CCOc1cccc(C#Cc2cncc(C(=O)N3CCN(c4ccc(C(=O)NS(=O)(=O)CC56CC7CC(CC(C7)C5)C6)cc4)CC3)c2)c1` [B2A031-01, N-(1-Adamantylmethylsulfonyl)-4-[4-[5-[2-(3-ethoxyphenyl)ethynyl]pyridine-3-carbonyl]piperazin-1-yl]benzamide], for which, where the note is “AS-MS, mixture library, Bcl-2”, the “ASMS ratio (%) n = 1” value stood at 0.0% and the “ASMS ratio (%) n = 2” value was 0.3%.
`CCOc1cncc(-c2ccccc2CCC(=O)N2CCN(c3ccc(C(=O)N(C)CC45CC6CC(CC(C6)C4)C5)cc3)CC2)c1` [B3A034-01, N-(1-Adamantylmethyl)-4-[4-[3-[2-(5-ethoxypyridin-3-yl)phenyl]propanoyl]piperazin-1-yl]-N-methylbenzamide]: under setting [1], the “ASMS ratio (%) n = 1” value is given as 1.3% and the “ASMS ratio (%) n = 2” value is on record as −0.6%.
Consider `CCOc1cccc(-c2cnn(-c3cc(C(=O)N4CCN(c5ccc(C(=O)NS(=O)(=O)CC67CC8CC(CC(C8)C6)C7)cc5)CC4)cc(C(F)(F)F)c3)c2)c1` [B2A043-01, N-(1-Adamantylmethylsulfonyl)-4-[4-[3-[4-(3-ethoxyphenyl)pyrazol-1-yl]-5-(trifluoromethyl)benzoyl]piperazin-1-yl]benzamide], for which, for the setting “AS-MS, mixture library, Bcl-2”, the “ASMS ratio (%) n = 1” value amounted to 14.0% and the “ASMS ratio (%) n = 2” value stood at 4.4%.
As for `CCOc1cccc(-c2cc(C(=O)N3CCN(c4ccc(C(=O)NS(=O)(=O)CCC(F)(F)F)cc4)CC3)cc(C(C)(C)C)c2)c1` [B2N037-01, 4-[4-[3-tert-Butyl-5-(3-ethoxyphenyl)benzoyl]piperazin-1-yl]-N-(3,3,3-trifluoropropylsulfonyl)benzamide], the “ASMS ratio (%)” value came to 0.0% (n = 1) and 0.0% (n = 2).

Source of the values: patent US20240132431A1, “METHOD FOR ALKYLATING ACIDIC FUNCTIONAL GROUP” (Chugai Seiyaku Kabushiki Kaisha, priority 2021, published 2024).
